Here are results for four compounds from patent US20060009358A1, “Synergistically acting herbicidal mixtures” (priority 2002, published 2006).

SMILES strings stand for the structures.

Common to all, as to test: Herbicidal action, post-emergence treatment, greenhouse (damage 0-100% vs untreated control)
Common to all, as to assay type: in vivo

In one assay the test system is Galium aparine. The text has this:
(§1) The mixtures according to the invention were applied pre- or post-emergence (foliar treatment). The herbicidal compounds of component B and, if desired, of component C were applied in the formulation in which they are present as commercially available product.
(§2) The herbicidally active compounds of components A), B) and, if desired, C) were applied in succession or jointly, in the latter case in some cases as a tank mix and in some cases as a ready-mix, in the form of emulsions, aqueous solutions or-suspensions, the vehicle being water (300-400 l/ha). In the case of the field trials, application was effected with the aid of a mobile plot sprayer.
(§3) The test period extended over 3 to 8 weeks, and the stands were also observed at later points in time.
(§4) Damage by the herbicidal compositions was evaluated with reference to a scale of 0% to 100% in comparison with untreated control plots. 0 means no damage and 100 means complete destruction of the plants.
(§5) In these examples, the value E at which only an additive effect of the individual active ingredients is to be expected was calculated by the method of S. R. Colby (Calculating synergistic and antagonistic responses of herbicide combinations, Weeds 15, 20 pp (1967)).
(§6) This was done using the formula [formula] where • X=Percentage of the herbicidal action of component X) at an application rate of x; • Y=Percentage of the herbicidal action of component Y) at an application rate of y; • E=expected herbicidal action of component X)+Y) at rates of application x+y (in %).
(§7) If the value observed exceeds the value E calculated in accordance with Colby's formula, then synergism is present.

Another assay has as its system Abutilon theophrasti.
Source text: as §1, §2, §3, §4, §5, §6, §7

Another assay concerns Echinochloa crus-galli. The conditions noted are these: Table 5, application rate 3.91 g/ha ai.
Source text: as §1, §2, §3, §4, §5, §6, §7

The test system of a further assay is Setaria faberi.
Source text: as §1, §2, §3, §4, §5, §6, §7

In a further assay the test system is Pharbitis purpurea. The conditions noted are these: Table 11, application rate 31.2 g/ha ai.
Source text: as §1, §2, §3, §4, §5, §6, §7

In another assay the test system is Brachiaria plantaginea. Conditions: Table 8, application rate 125 g/ha ai.
Source text: as §1, §2, §3, §4, §5, §6, §7

In another assay the test system is Polygonum persicaria.
Source text: as §1, §2, §3, §4, §5, §6, §7

Where [1] appears, read: Table 4, application rate 7.81 g/ha ai.
Setting [2] is: Table 3, application rate 3.91 g/ha ai.

With `Cc1ccn2nc(S(=O)(=O)Nc3c(F)cccc3F)nc2n1` [IIa, flumetsulam], the “Galium aparine Damage” value in the assay on Galium aparine (setting [1]) worked out at 80%. Besides, in the assay on Abutilon theophrasti (setting [2]), the “Abutilon theophrasti Damage” value was determined as 60%. The “Echinochloa crus-galli Damage” value in the assay on Echinochloa crus-galli was 25%.
As to `Cc1c(C(=O)c2cnn(C)c2O)ccc(S(C)(=O)=O)c1C1=NOCC1` [Ia.29, 4-[2-methyl-3-(4,5-dihydroisoxazol-3-yl)-4-methylsulfonyl-benzoyl]-1-methyl-5-hydroxy-1H-pyrazole], the “Galium aparine Damage” value in the assay with Galium aparine (setting [1]) was 70%. Moreover, the “Abutilon theophrasti Damage” value in the assay on Abutilon theophrasti (setting [2]) came to 60%.
Turning to `O=C(O)c1nc(Cl)ccc1Cl` [IIb, clopyralid], the “Setaria faberi Damage” value stood at 20% with Setaria faberi (Table 6, application rate 250 g/ha ai) and 20% in the assay with Setaria faberi (Table 7, application rate 125 g/ha ai).
For the compound `CCNc1nc(Cl)nc(NC(C)C)n1` [atrazine], the “Galium aparine Damage” value in the assay on Galium aparine (Table 9, application rate 125 g/ha ai) is listed as 60%. For the same compound, the “Abutilon theophrasti Damage” value with Abutilon theophrasti (Table 8, application rate 125 g/ha ai) was determined as 30%. In addition, the “Pharbitis purpurea Damage” value in the assay with Pharbitis purpurea is given as 60%. The “Brachiaria plantaginea Damage” value in the assay with Brachiaria plantaginea was found to be 25%. In addition, the “Setaria faberi Damage” value in the assay on Setaria faberi (Table 11, application rate 31.2 g/ha ai) is on record as 30%. Also, the “Polygonum persicaria Damage” value was 40% in the assay with Polygonum persicaria (Table 10, application rate 62.5 g/ha ai) and 30% in the assay on Polygonum persicaria (Table 12, application rate 31.2 g/ha ai).
